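96-well plates; 48 h exposure; 5 concentrations. Endpoints by linear interpolation between flanking doses. Not reached: highest tested concentration assigned. At the GI50, growth is halved.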 Activity calls are given as the source filed them. No stated cut-off is given here; in the data, active = GI50 up to about 1.1 µM and inactive = higher.
Assays:
Experiment in all cases: DTP human tumour cell line panel, 48 h
OVCAR-3 = system: OVCAR-3
DU-145 = system: DU-145
IGROV-1 = system: IGROV-1
KM12 = system: KM12
HL-60 = system: HL-60
786-0 = system: 786-0
SK-MEL-28 = system: SK-MEL-28
A498 = system: A498
K562 = system: K562
HCT-116 = system: HCT-116
OVCAR-4 = system: OVCAR-4
OVCAR-8 = system: OVCAR-8
M14 = system: M14
MCF7 = system: MCF7
MOLT-4 = system: MOLT-4
RPMI-8226 = system: RPMI-8226
SN12C = system: SN12C
SK-MEL-5 = system: SK-MEL-5
UO-31 = system: UO-31

Row | SMILES | GI50 (OVCAR-3) | GI50 (DU-145) | GI50 (IGROV-1) | GI50 (KM12) | GI50 (HL-60) | GI50 (786-0) | GI50 (SK-MEL-28) | GI50 (A498) | GI50 (K562) | GI50 (HCT-116) | GI50 (OVCAR-4) | GI50 (OVCAR-8) | GI50 (M14) | GI50 (MCF7) | GI50 (MOLT-4) | GI50 (RPMI-8226) | GI50 (SN12C) | GI50 (SK-MEL-5) | GI50 (UO-31)
1 | FC(F)(F)c1nc2nc(Cl)c(Cl)nc2n1CCCN1CCOCC1 | 64.3 µM (inactive) | 24.9 µM (inactive) | 26.4 µM (inactive) | > 100 µM (inactive) | 19.1 µM (inactive) | > 100 µM (inactive) | 33.7 µM (inactive) | 97.5 µM (inactive) | 14.2 µM (inactive) | 41.9 µM (inactive) | 55.5 µM (inactive) | 29.3 µM (inactive) | 48.2 µM (inactive) | 53.1 µM (inactive) | 13 µM (inactive) | 23.4 µM (inactive) | 84.9 µM (inactive) | 61.5 µM (inactive) | –
2 | CC(=O)c1ccc2c(c1)CC1(C2)Cc2cc3c(cc2C1)C(=O)CC3 (stereo unspecified) | 0.493 µM (active) | 1.4 µM (inactive) | 2.67 µM (inactive) | 0.624 µM (active) | 0.76 µM (active) | 3.64 µM (inactive) | 3.55 µM (inactive) | 0.401 µM (active) | 0.521 µM (active) | 2.1 µM (inactive) | 2.55 µM (inactive) | 3.49 µM (inactive) | 2 µM (inactive) | 0.429 µM (active) | – | 0.345 µM (active) | 4.25 µM (inactive) | 0.608 µM (active) | 9.53 µM (inactive)
3 | O=C(CC(C(=O)O)N1CCOCC1)c1ccccc1 (stereo unspecified) | 20 µM (inactive) | 23.6 µM (inactive) | 26.2 µM (inactive) | – | 20.6 µM (inactive) | 15.1 µM (inactive) | 19.5 µM (inactive) | 25.1 µM (inactive) | 18.8 µM (inactive) | 14 µM (inactive) | 23 µM (inactive) | 30.8 µM (inactive) | 14.6 µM (inactive) | 15.7 µM (inactive) | 15.2 µM (inactive) | 12.7 µM (inactive) | 17.8 µM (inactive) | 19.6 µM (inactive) | –
4 | COc1cc(O)c2c(=O)c3cccc(C)c3[nH]c2c1 | 9.31 µM (inactive) | > 10 µM (inactive) | > 10 µM (inactive) | 5.93 µM (inactive) | > 10 µM (inactive) | > 10 µM (inactive) | > 10 µM (inactive) | 9.33 µM (inactive) | > 10 µM (inactive) | > 10 µM (inactive) | 6.4 µM (inactive) | > 10 µM (inactive) | > 10 µM (inactive) | > 10 µM (inactive) | 3.99 µM (inactive) | > 10 µM (inactive) | > 10 µM (inactive) | > 10 µM (inactive) | –
5 | Nc1nnc2n1C(=O)C(C1(C3=Nc4nnc(N)n4C3=O)Cc3ccccc3C1=O)=N2 | > 100 µM (inactive) | > 100 µM (inactive) | – | > 100 µM (inactive) | > 100 µM (inactive) | > 100 µM (inactive) | > 100 µM (inactive) | 0.0205 µM (active) | 94 µM (inactive) | > 100 µM (inactive) | – | > 100 µM (inactive) | > 100 µM (inactive) | 40.7 µM (inactive) | > 100 µM (inactive) | > 100 µM (inactive) | > 100 µM (inactive) | > 100 µM (inactive) | > 100 µM (inactive)
6 | O=[N+]([O-])c1cc2c([N+](=O)[O-])cccc2o1 | 5.01 µM (inactive) | 14.7 µM (inactive) | – | 15.2 µM (inactive) | – | 2.17 µM (inactive) | 3.15 µM (inactive) | 22.4 µM (inactive) | – | 2.72 µM (inactive) | 1.58 µM (inactive) | 17 µM (inactive) | 10.2 µM (inactive) | 3.5 µM (inactive) | – | 2.85 µM (inactive) | 12.1 µM (inactive) | 16.7 µM (inactive) | 1.88 µM (inactive)
7 | O=c1[nH]c2cc(F)c(F)cc2nc1Cc1ccccc1 | – | > 100 µM (inactive) | > 100 µM (inactive) | > 100 µM (inactive) | > 100 µM (inactive) | > 100 µM (inactive) | > 100 µM (inactive) | > 100 µM (inactive) | 30 µM (inactive) | > 100 µM (inactive) | > 100 µM (inactive) | > 100 µM (inactive) | > 100 µM (inactive) | > 100 µM (inactive) | 16.1 µM (inactive) | – | – | > 100 µM (inactive) | > 100 µM (inactive)
8 | COc1ccc(Cn2nc(OCc3ccccn3)c3cc([N+](=O)[O-])ccc32)cc1 | > 100 µM (inactive) | > 100 µM (inactive) | > 100 µM (inactive) | > 100 µM (inactive) | > 100 µM (inactive) | > 100 µM (inactive) | > 100 µM (inactive) | > 100 µM (inactive) | > 100 µM (inactive) | – | – | 63.1 µM (inactive) | > 100 µM (inactive) | > 100 µM (inactive) | > 100 µM (inactive) | > 100 µM (inactive) | > 100 µM (inactive) | > 100 µM (inactive) | > 100 µM (inactive)

Source: ChEMBL document CHEMBL1201862, “PubChem BioAssay data set” (2004)
